Assay results taken from patent US4246271A, “4-Phenyl-2-thiazolyl-oxamates useful in the treatment of asthma” (priority 1978, dated 1981).

What was measured:
[1] = Solubilities; type: physicochemical; settings: for Solubility in DMSO: DMSO / dimethyl sulfoxide
[2] = test system: rats; assay: Cutaneous passive anaphylaxis test; type: in vivo; settings: Rattus norvegicus, po; per os, 10 minutes before intravenous injection of antigen + stain; tested at 30, 5, 1 and 0.2 mg/kg, lots of 10 rats; suspension in Tween and water; read-out: ED50 (dose which reduces by one-half the leakage of the stain as compared with the controls)
Protocol: The results are obtained on the cutaneous passive anaphylaxis test in accordance with the method of Broeklehurst W. E. in Handbook of Experimental Immunology, Editor Weiz D. M., Blackwell Scientific Publications, Oxford and Edinborough, pages […] (1967).
(a) Prepare the antiserum on rats sensitized by antigen; inject it intradermally.
(b) Leave a waiting time of 24 to 48 hours.
(c) Administration of the product to be tested per os 10 minutes before operation (d) (intravenous simultaneously with d).
(d) Intravenous injection of the antigen+stain.
(e) Sacrifice 30 minutes afterwards and visualize the antigen-antibody reaction by the leakage of the stain due to the increase of the capillary permeability under the combined influence of histamine and SRSA.
This action is expressed as ED50, i.e., the dose which reduces by one-half the leakage of the stain as compared with the controls.
The tests were carried out in succession with 30, 5, 1 and 0.2 mg/kg on homogeneous lots of 10 rats, with due consideration of their insolubility in water. These compounds are administered in suspension in Tween™ and water.

[3] = Acute toxicity after a single oral administration in mice (Miller & Tainter); type: in vivo; settings: mouse, in vivo, mice, mortality noted at the end of 7 days, read-out: LD50 approximate
Protocol: (§1) (1) Toxicology (acute toxicity after a single oral administration in mice by the method of Miller & Tainter (Proc. Soc. Exper. Biol. Med., 1944, 57, 261)).
(§2) The products are administered in a suspension of Tween 80+distilled water. The mortality is noted at the end of 7 days. The following table summarizes the results obtained: […]

[4] = test system: mice; assay: as above; type: in vivo; settings: 1000 mg/kg, 10 mice per lot, suspension of Tween 80 + distilled water
Protocol: as §1, §2

Structure (SMILES) | Solubility in ethanol ([1]; ethanol) | Solubility in water [1] | ED50 [2] | LD50 at 168 h [3] | Mortality at end of 7th day [4] | Solubility in dimethyl acetamid ([1]; dimethyl acetamid) | Solubility in ethanol (in words) ([1]; ethanol) | Solubility in methyl pyrrolidone [1] | Solubility in DMSO [1]
Nc1nc(-c2ccc(Cl)cc2)cs1 [4-parachlorophenyl-2-amino-thiazole] | 15% | insoluble |  |  |  |  |  |  | 
CCOC(=O)C(=O)Nc1nc(-c2ccccc2)cs1 [Example 1, Ethyl-(4-phenyl-2-thiazolyl)-oxamate] |  | insoluble | 1 mg/kg | > 1000 mg/kg | 1 | 20% | insoluble | 25% | 
CCOC(=O)C(=O)Nc1nc(-c2ccc(Cl)cc2)cs1 [Example 2, Ethyl-(4-p-chlorophenyl-2-thiazolyl)-oxamate] |  | insoluble |  | > 1000 mg/kg | 0 |  | insoluble | 4% | 1%
CCOC(=O)C(=O)Nc1nc(-c2ccc(OC)cc2)cs1 [Example 3, Ethyl-(4-paramethoxyphenyl-2-thiazolyl)-oxamate] |  | insoluble | 2 mg/kg | > 1000 mg/kg | 1 |  | insoluble | 50% | 50%
Cc1cccc(-c2csc(NC(=O)C(=O)OCc3ccccc3)n2)c1 [Example 4, Benzyl-(4-metamethylphenyl-2-thiazolyl)-oxamate] |  |  |  | > 1000 mg/kg | 1 |  |  |  | 
O=C(Nc1nc(-c2ccccc2Br)cs1)C(=O)OCc1ccccc1 [Example 5, Benzyl-(4-orthobromophenyl-2-thiazolyl)-oxamate] |  |  |  | > 1000 mg/kg | 2 |  |  |  | 
